Laboratory results: US20160158200A1, “Combinations of Hepatitis C Virus Inhibitors” (priority 2013, published 2016)

Test system: HCV genotype-1a variant with glutamine 30 changed to glutamate in the NS5A protein
Type: cell-based
Conditions: test compound titrated with BMS-790052 fixed at 200 nM; genotype 1a Q30E replicon
Procedure, shortened: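 Synergy was assessed by combining several fixed amounts of an NS5A-targeting compound with a titration of the second compound of interest.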

Compound	Fold-Synergistic 1a (Q30E)
CC(C)(C)[C@H](NC(=O)C1(c2ccc(Cl)cc2)CC1)c1nc(-c2ccc(-c3ccc(-c4c[nH]c([C@@H](NC(=O)C5(c6ccc(Cl)cc6)CC5)C(C)(C)C)n4)cc3)cc2)c[nH]1 [Compound N-56]	>100 fold
CC(C)(C)[C@H](NC(=O)C1(c2ccc(Cl)cc2)CCC1)c1nc(-c2ccc(-c3ccc(-c4c[nH]c([C@@H](NC(=O)C5(c6ccc(Cl)cc6)CCC5)C(C)(C)C)n4)cc3)cc2)c[nH]1 [Compound N-57]	>100 fold
CC(C)(C)CCC(=O)N[C@H](c1nc(-c2ccc(-c3ccc(-c4c[nH]c([C@@H](NC(=O)CCC(C)(C)C)C(C)(C)C)n4)cc3)cc2)c[nH]1)C(C)(C)C [Compound N-58]	>100 fold
COCC1(C(=O)N[C@H](c2nc(-c3ccc(-c4ccc(-c5c[nH]c([C@@H](NC(=O)C6(COC)CCC6)C(C)(C)C)n5)cc4)cc3)c[nH]2)C(C)(C)C)CCC1 [Compound N-59]	>100 fold
C[C@H](C(=O)N[C@H](c1nc(-c2ccc(-c3ccc(-c4c[nH]c([C@@H](NC(=O)[C@@H](C)c5ccccc5)C(C)(C)C)n4)cc3)cc2)c[nH]1)C(C)(C)C)c1ccccc1 [Compound N-60]	>100 fold
C[C@@H](C(=O)N[C@H](c1nc(-c2ccc(-c3ccc(-c4c[nH]c([C@@H](NC(=O)[C@H](C)c5ccccc5)C(C)(C)C)n4)cc3)cc2)c[nH]1)C(C)(C)C)c1ccccc1 [Compound N-61]	>100 fold
CC(C)(C)[C@H](NC(=O)CC12CC3CC(CC(C3)C1)C2)c1nc(-c2ccc(-c3ccc(-c4c[nH]c([C@@H](NC(=O)CC56CC7CC(CC(C7)C5)C6)C(C)(C)C)n4)cc3)cc2)c[nH]1 [Compound N-63]	>100 fold
Cc1ccc(C(=O)N[C@H](c2nc(-c3ccc(-c4ccc(-c5c[nH]c([C@@H](NC(=O)c6ccc(C)s6)C(C)(C)C)n5)cc4)cc3)c[nH]2)C(C)(C)C)s1 [Compound N-64]	>100 fold
CC(C)(C)[C@H](NC(=O)c1ccc(Cl)s1)c1nc(-c2ccc(-c3ccc(-c4c[nH]c([C@@H](NC(=O)c5ccc(Cl)s5)C(C)(C)C)n4)cc3)cc2)c[nH]1 [Compound N-65]	>100 fold
CC(C)(C)[C@H](NC(=O)c1c(F)cccc1Cl)c1nc(-c2ccc(-c3ccc(-c4c[nH]c([C@@H](NC(=O)c5c(F)cccc5Cl)C(C)(C)C)n4)cc3)cc2)c[nH]1 [Compound N-66]	>100 fold
CC(C)CC(=O)N[C@@H](c1nc(-c2ccc(-c3ccc(-c4c[nH]c([C@H](NC(=O)CC(C)C)C(C)(C)C)n4)cc3)cc2)c[nH]1)C(C)(C)C [Compound N-67]	>10 fold
CC(C)[C@H](NC(=O)C(C)(C)C)c1nc(-c2ccc3c(c2)Cc2cc(-c4c[nH]c([C@@H](NC(=O)C(C)(C)C)C(C)C)n4)ccc2-3)c[nH]1 [Compound N-68]	>100 fold
CC(C)[C@H](NC(=O)C1(C)CCCCC1)c1ncc(-c2ccc3c(c2)Cc2cc(-c4cnc([C@@H](NC(=O)C5(C)CCCCC5)C(C)C)[nH]4)ccc2-3)[nH]1.O=C(O)C(F)(F)F [Compound N-69]	>100 fold
CC(C)[C@H](NC(=O)C1CCC(F)(F)CC1)c1ncc(-c2ccc3c(c2)Cc2cc(-c4cnc([C@@H](NC(=O)C5CCC(F)(F)CC5)C(C)C)[nH]4)ccc2-3)[nH]1.O=C(O)C(F)(F)F [Compound N-70]	>100 fold
CC(C)[C@H](NC(=O)C1CC(F)(F)C1)c1ncc(-c2ccc3c(c2)Cc2cc(-c4cnc([C@@H](NC(=O)C5CC(F)(F)C5)C(C)C)[nH]4)ccc2-3)[nH]1.O=C(O)C(F)(F)F [Compound N-71]	>100 fold
CC(C)[C@H](NC(=O)C1(C)CCCC1)c1ncc(-c2ccc3c(c2)Cc2cc(-c4cnc([C@@H](NC(=O)C5(C)CCCC5)C(C)C)[nH]4)ccc2-3)[nH]1.O=C(O)C(F)(F)F [Compound N-72]	>100 fold
CC(C)[C@H](NC(=O)c1cc(Cl)ccc1F)c1ncc(-c2ccc3c(c2)Cc2cc(-c4cnc([C@@H](NC(=O)c5cc(Cl)ccc5F)C(C)C)[nH]4)ccc2-3)[nH]1.O=C(O)C(F)(F)F [Compound N-73]	>100 fold
CC(C)[C@H](NC(=O)C(C)(C)C)c1nc(-c2ccc3c(c2)CCc2cc(-c4c[nH]c([C@@H](NC(=O)C(C)(C)C)C(C)C)n4)ccc2-3)c[nH]1 [Compound N-74]	>100 fold
CC(C)[C@H](NC(=O)C(C)(C)F)c1ncc(-c2ccc3c(c2)CCc2cc(-c4cnc([C@@H](NC(=O)C(C)(C)F)C(C)C)[nH]4)ccc2-3)[nH]1.O=C(O)C(F)(F)F [Compound N-75]	>100 fold
CC(C)[C@H](NC(=O)c1cc(Cl)ccc1F)c1nc(-c2ccc3c(c2)CCc2cc(-c4c[nH]c([C@@H](NC(=O)c5cc(Cl)ccc5F)C(C)C)n4)ccc2-3)c[nH]1.O=C(O)C(F)(F)F [Compound N-76]	>100 fold
Cc1cc(-c2ccc(-c3c[nH]c([C@@H](NC(=O)C(C)(C)C)C(C)C)n3)cc2)ccc1-c1c[nH]c([C@@H](NC(=O)C(C)(C)C)C(C)C)n1 [Compound N-77]	>100 fold

Compound	Fold-Synergistic 1a (Q30E)
Cc1cc(-c2ccc(-c3c[nH]c([C@@H](NC(=O)C4CC(F)(F)C4)C(C)C)n3)cc2)ccc1-c1c[nH]c([C@@H](NC(=O)C2CC(F)(F)C2)C(C)C)n1.O=C(O)C(F)(F)F [Compound N-78]	>100 fold
Cc1cc(-c2ccc(-c3c[nH]c([C@@H](NC(=O)C4(C)CCCCC4)C(C)C)n3)cc2)ccc1-c1c[nH]c([C@@H](NC(=O)C2(C)CCCCC2)C(C)C)n1.O=C(O)C(F)(F)F [Compound N-79]	>100 fold
Cc1cc(-c2ccc(-c3c[nH]c([C@@H](NC(=O)C4(C)CCCC4)C(C)C)n3)cc2)ccc1-c1c[nH]c([C@@H](NC(=O)C2(C)CCCC2)C(C)C)n1.O=C(O)C(F)(F)F [Compound N-80]	>100 fold
Cc1cc(-c2ccc(-c3c[nH]c([C@@H](NC(=O)c4c(F)cccc4Cl)C(C)C)n3)cc2)ccc1-c1c[nH]c([C@@H](NC(=O)c2c(F)cccc2Cl)C(C)C)n1.O=C(O)C(F)(F)F [Compound N-81]	>100 fold
Cc1cc(-c2ccc(-c3c[nH]c([C@@H](NC(=O)C4CCC(F)(F)CC4)C(C)C)n3)cc2)ccc1-c1c[nH]c([C@@H](NC(=O)C2CCC(F)(F)CC2)C(C)C)n1.O=C(O)C(F)(F)F [Compound N-82]	>100 fold
Cc1cc(-c2ccc(-c3c[nH]c([C@@H](NC(=O)c4ccc(Cl)s4)C(C)C)n3)cc2)ccc1-c1c[nH]c([C@@H](NC(=O)c2ccc(Cl)s2)C(C)C)n1.O=C(O)C(F)(F)F [Compound N-83]	>100 fold
Cc1cc(-c2ccc(-c3c[nH]c([C@@H](NC(=O)C4(C)CCC(F)(F)CC4)C(C)C)n3)cc2)ccc1-c1c[nH]c([C@@H](NC(=O)C2(C)CCC(F)(F)CC2)C(C)C)n1.O=C(O)C(F)(F)F [Compound N-84]	>100 fold
COC(C)(C)C(=O)N[C@H](c1nc(-c2ccc(-c3ccc(-c4c[nH]c([C@@H](NC(=O)C(C)(C)OC)C(C)(C)C)n4)c(C)c3)cc2)c[nH]1)C(C)(C)C.O=C(O)C(F)(F)F [Compound N-85]	>100 fold
Cc1cc(-c2ccc(-c3c[nH]c([C@@H](NC(=O)C(C)(C)C)C(C)(C)C)n3)cc2)ccc1-c1c[nH]c([C@@H](NC(=O)C(C)(C)C)C(C)(C)C)n1.O=C(O)C(F)(F)F [Compound N-86]	>100 fold
COC(C)(C)C(=O)N[C@H](c1nc(-c2ccc(-c3ccc(-c4c[nH]c([C@@H](NC(=O)C(C)(C)OC)C(C)C)n4)c(F)c3)cc2)c[nH]1)C(C)C.O=C(O)C(F)(F)F [Compound N-87]	>100 fold
CC(C)[C@H](NC(=O)c1cc(Cl)ccc1F)c1nc(-c2ccc(-c3ccc(-c4c[nH]c([C@@H](NC(=O)c5cc(Cl)ccc5F)C(C)C)n4)c(F)c3)cc2)c[nH]1.O=C(O)C(F)(F)F [Compound N-88]	>100 fold
CC(C)[C@H](NC(=O)C(C)(C)C)c1nc(-c2ccc(-c3ccc(-c4c[nH]c([C@@H](NC(=O)C(C)(C)C)C(C)C)n4)c(F)c3)cc2)c[nH]1.O=C(O)C(F)(F)F [Compound N-89]	>100 fold
CC(C)[C@H](NC(=O)C(C)(C)F)c1nc(-c2ccc(-c3ccc(-c4c[nH]c([C@@H](NC(=O)C(C)(C)F)C(C)C)n4)c(F)c3)cc2)c[nH]1.O=C(O)C(F)(F)F [Compound N-90]	>100 fold
CC(C)[C@H](NC(=O)C(C)(C)OCC(F)F)c1nc(-c2ccc(-c3ccc(-c4c[nH]c([C@@H](NC(=O)C(C)(C)OCC(F)F)C(C)C)n4)c(F)c3)cc2)c[nH]1.O=C(O)C(F)(F)F [Compound N-91]	>100 fold
CC(C)[C@H](NC(=O)c1ccccc1F)c1nc(-c2ccc(-c3ccc(-c4c[nH]c([C@@H](NC(=O)c5ccccc5F)C(C)C)n4)c(F)c3)cc2)c[nH]1.O=C(O)C(F)(F)F [Compound N-92]	>100 fold
CC(C)(C)C(=O)N[C@H](c1nc(-c2ccc(-c3ccc(-c4c[nH]c([C@@H](NC(=O)C(C)(C)C)C(C)(C)C)n4)c(F)c3)cc2)c[nH]1)C(C)(C)C.O=C(O)C(F)(F)F [Compound N-93]	>100 fold
COC(C)(C)C(=O)N[C@H](c1nc(-c2ccc(-c3ccc(-c4c[nH]c([C@@H](NC(=O)C(C)(C)OC)C(C)(C)C)n4)c(F)c3)cc2)c[nH]1)C(C)(C)C.O=C(O)C(F)(F)F [Compound N-94]	>100 fold
CC(C)(C)[C@H](NC(=O)c1ccccc1F)c1nc(-c2ccc(-c3ccc(-c4c[nH]c([C@@H](NC(=O)c5ccccc5F)C(C)(C)C)n4)c(F)c3)cc2)c[nH]1.O=C(O)C(F)(F)F [Compound N-95]	>100 fold
COC(C)(C)C(=O)N[C@H](c1nc(-c2ccc(-c3ccc(-c4c[nH]c([C@@H](NC(=O)C(C)(C)OC)C(C)C)n4)cc3F)cc2)c[nH]1)C(C)C.O=C(O)C(F)(F)F [Compound N-96]	>100 fold
CC(C)[C@H](NC(=O)C(C)(C)F)c1nc(-c2ccc(-c3ccc(-c4c[nH]c([C@@H](NC(=O)C(C)(C)F)C(C)C)n4)cc3F)cc2)c[nH]1.O=C(O)C(F)(F)F [Compound N-97]	>100 fold
